In data set [1] the test system is RPE-MYC cells. Nature of the data set: VX-680-induced cell death in RPE-MYC cells and derivatives. In kind it is cell-based. The source says:
(§1) The p53 function in RPE-Myc cells can be interfered with by either a small molecule inhibitor of p53, PFT-a, (FIG. 1A), or a dominant negative p53 mutant (FIG. 1B). […] In contrast, either of these reagents conferred more than 70% protection against the cytotoxicity elicited by hydroxyurea (FIG. 1A-B), confirming that the p53 function was compromised. The conclusion was that p53 was not required for the apoptosis elicited by VX-680 in cells overexpressing MYC.
Survival signals are often mediated by the Ras-PI3K-Akt pathway. Overexpression of an active Hu-Ras^V12 elicited profound senescence in RPE-MYC cells, prevented generation of stable cell lines expressing Hu-Ras^V12, but were able to generate RPE-MYC cells expressing an active allele of MyrAkt. […] Thus, active signaling from Akt enhanced, rather than blocked, the apoptosis elicited by VX-680. The BCL family antiapoptotic factor Bcl2 is a critical regulator of mitochondrion-dependent apoptotic pathway by inhibiting cytochrome C release from mitochondria, whereas XIAP, the most characterized member of the IAP family, has been known to sequester and inactivate active caspases, proteases responsible for apoptosis. The overexpression of Bcl2 or Bcl-xL provided more than 40% protection against the cytotoxicity of VX-680 six days after administration of VX-680 (see, FIGS. 1C and 2) and that overexpression of XIAP has no effect on the MYC-dependent cytotoxicity (FIG. 1C).
Various RPEMYC derivatives used in this study were generated by stably transfecting human RPEMYC cells with a construct that expresses the gene of interest and selecting with 1 μg/ml of puromycin. Breast cancer cell line MD231MYC/Bcl2 was generated by engineering human MDA-MB-231 to stably express MYC and Bcl2. Lung cancer cell line MM-BRAF was created from mouse lung cancer model initiated by BRAF^V600E. All cell lines were cultured in DMEM supplemented with 10% fetal bovine serum and antibiotics at 5% CO2 and 95% air in a humidified incubator.
(§2) Cell death assays in response to drug treatment were performed 24 h after cells were seeded in 24-well plates. Each experiment was done in triplicate and each experiment was repeated at least twice unless indicated otherwise. Dead cells were identified by the trypan blue exclusion assay. All values are expressed as mean±1 SD of the mean.

A further data set relates to MM-BRAF cells. Nature of the data set: Cell death / polyploidy in parental lung cancer cells. In kind it is cell-based, mouse.
Data set [2] relates to RPE-MYC cells. Nature of the data set: Hydroxyurea cytotoxicity in RPE-Myc cells (p53 function control). In kind it is cell-based, human. The following applies: p53 inhibition; FIG. 1A.
Excerpt: as §1, §2

Consider `Cc1cc(Nc2cc(N3CCN(C)CC3)nc(Sc3ccc(NC(=O)C4CC4)cc3)n2)[nH]n1` [VX-680], for which, in the data set with RPE-MYC cells [1] (FIG. 1C), the “effect of overexpression of XIAP on the MYC-dependent cytotoxicity” value is “no effect”. The “sensitivity to cytotoxicity, cells expressing Myc and active Akt versus Myc alone” value with RPE-MYC cells [1] (RPE cells expressing both Myc and active Akt, FIG. 1C) was “moderately more sensitive”. Also, in the data set on RPE-MYC cells [1] (six days after administration, FIGS. 1C and 2), the “protection against the cytotoxicity by overexpression of Bcl2 or Bcl-xL” value is “more than 40%”. The “cell death on exposure” value in the data set on MM-BRAF cells (in vitro, FIG. 6A) is on record as “failed to undergo cell death”. The “induction of multinucleation and polyploidy” value in the data set with MM-BRAF cells (treatment for 4 days, FIG. 6B) was “all cells became multinucleated and polyploid”.
On to `COc1cc(Nc2ncc3c(n2)-c2ccc(Cl)cc2C(c2c(F)cccc2OC)=NC3)ccc1C(=O)O` [MLN8237], for which the “effect on lung cancer cells” value in the data set with MM-BRAF cells (FIG. 6A legend) is “cytostatic effect”. The induction of polyploidy entry in the data set on MM-BRAF cells (FIG. 6B legend) was “develop polyploidy”.
Regarding `Cc1ccc(C(=O)Cn2c3c(sc2=N)CCCC3)cc1` [PFT-a], in the data set on RPE-MYC cells [2], the “protection against the cytotoxicity elicited by hydroxyurea” value is recorded as “more than 70%”. Moreover, the “protection from VX-680-induced cell death” value with RPE-MYC cells [1] (p53 inhibition, FIG. 1A) was “Neither of these reagents protected”.

These data come from patent publication US11104633B2, “Cancer treatment using compounds that selectively target polyploid cancer cells for disruption” (Chengdu Anticancer Bioscience, Ltd., priority 2017, dated 2021).
